Ki data for 12 compounds are collected here from patent publication US20240067637A1, “NAPHTHYRIDINE AND PYRIDO[3,4-c]PYRIDAZINE DERIVATIVES AS GABAA ALPHA 5 RECEPTOR MODULATORS” (Richter Gedeon Nyrt., priority 2020, published 2024).

The assay has as its target human recombinant GABAA α5β3γ2 receptor (Homo sapiens (Human), UniProt P18507+P31644). Put plainly: Radioligand ([3H]Ro151788) receptor binding assay. To be noted: membranes of HEK cells expressing human recombinant GABAA α5β3γ2; 0.5 nM [3H]Ro151788; 60 minutes at 4° C.; read-out: hGABAA α5 Ki. The procedure: The GABAA α5β3γ2 protein used for the receptor binding assay was derived from membranes produced from HEK cells (Millipore CYL3073) expressing the human recombinant GABAA α5β3γ2 receptor. Cells were stored and cultured in-house according to the instructions provided by the vendor (Millipore). Cell pellet was homogenized in 10 times modified Krebs Henseleit buffer (membrane preparation buffer): 20 mM Tris, 120 mM NaCl, 100 mM KCl, 25 mM CaCl2 and 25 mM MgCl2 pH=7.4 at 4° C. using Ultra Turrax (Janke&Kunkel) maximal speed for 15 seconds. The homogenate was centrifuged at 40,000 g for 30 minutes at 4° C. Supernatant was discarded and the resulting pellet was washed in membrane preparation buffer. Pellet was resuspended in membrane preparation buffer and aliquots of 1.4 mL ampules were stored at −70° C. until use.
Receptor binding assays were performed in 96-well format in deep-well plates. For each 96-well plate one ampule of membrane homogenate was thawed and diluted in binding buffer (50 mM Tris pH=7.4, 100 mM KCl) and 200 μL was dispensed into each well. Radioligand [^3H]Ro151788 (Perkin Elmer: NET757250UC) was prepared in binding buffer and added to each well in 50 μL volume to give final concentration of 0.5 nM. Test compounds in suitable concentration(s) were added in additional 50 μL. The final assay volume was 300 μL. Incubation was carried out for 60 minutes at 4° C. For non-specific binding 10 μM unlabeled diazepam was used. After incubation samples were filtered over UniFilter® GF/BT using Filtermate Harvester (Perkin Elmer) and washed with 5×1 mL binding buffer. The plate was dried at 40° C. for an hour and 40 μL Microscint (Perkin Elmer) scintillation cocktail was added to each well. The plate was read in Microbeta (Perkin Elmer).
The specific radioligand binding (SB) was defined as the difference between total binding (Tot) and the non-specific binding (NSB). Results are expressed as a percent inhibition of specific binding obtained in the presence of compound of interest.
For IC50 and Ki determination a minimum of six drug concentrations in triplicate were used. IC50 values (i.e. concentration of compound giving 50% inhibition of specific binding) were calculated from concentration-displacement curves by sigmoidal fitting using Origin 7.5 software. Ki values (i.e. inhibition constants) were calculated using the Cheng-Prusoff equation Ki=IC50/[1+(L/KD)], where [L] is the radioligand concentration and KD the affinity of the labelled ligand for receptor. KD was determined from the Saturation analyses.

Chain of human recombinant GABAA α5β3γ2 receptor (P31644 32-462): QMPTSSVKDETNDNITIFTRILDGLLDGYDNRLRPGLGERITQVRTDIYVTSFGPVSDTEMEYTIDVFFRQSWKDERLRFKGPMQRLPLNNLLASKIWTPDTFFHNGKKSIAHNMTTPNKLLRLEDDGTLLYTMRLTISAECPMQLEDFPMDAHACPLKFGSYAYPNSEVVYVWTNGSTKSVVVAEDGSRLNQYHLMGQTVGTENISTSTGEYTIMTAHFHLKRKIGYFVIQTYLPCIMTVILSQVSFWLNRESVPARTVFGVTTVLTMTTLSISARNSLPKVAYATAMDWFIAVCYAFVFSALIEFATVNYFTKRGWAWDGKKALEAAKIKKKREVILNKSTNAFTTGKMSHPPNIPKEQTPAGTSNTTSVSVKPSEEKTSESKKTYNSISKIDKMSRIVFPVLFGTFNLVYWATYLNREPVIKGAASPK
Chain of human recombinant GABAA α5β3γ2 receptor (P28472 26-473 partner): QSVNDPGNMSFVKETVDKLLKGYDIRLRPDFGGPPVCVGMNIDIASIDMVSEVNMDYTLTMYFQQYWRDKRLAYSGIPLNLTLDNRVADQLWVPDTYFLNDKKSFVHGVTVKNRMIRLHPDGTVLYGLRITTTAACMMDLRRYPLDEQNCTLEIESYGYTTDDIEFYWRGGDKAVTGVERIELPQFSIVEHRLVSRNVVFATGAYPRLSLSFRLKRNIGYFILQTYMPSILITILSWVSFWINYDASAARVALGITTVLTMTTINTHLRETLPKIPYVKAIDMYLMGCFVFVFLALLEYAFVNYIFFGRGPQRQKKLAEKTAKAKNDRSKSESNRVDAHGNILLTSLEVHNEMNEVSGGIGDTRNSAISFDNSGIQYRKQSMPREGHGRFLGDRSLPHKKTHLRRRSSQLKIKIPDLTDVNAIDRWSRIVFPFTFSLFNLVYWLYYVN
Chain of human recombinant GABAA α5β3γ2 receptor (P18507 40-475): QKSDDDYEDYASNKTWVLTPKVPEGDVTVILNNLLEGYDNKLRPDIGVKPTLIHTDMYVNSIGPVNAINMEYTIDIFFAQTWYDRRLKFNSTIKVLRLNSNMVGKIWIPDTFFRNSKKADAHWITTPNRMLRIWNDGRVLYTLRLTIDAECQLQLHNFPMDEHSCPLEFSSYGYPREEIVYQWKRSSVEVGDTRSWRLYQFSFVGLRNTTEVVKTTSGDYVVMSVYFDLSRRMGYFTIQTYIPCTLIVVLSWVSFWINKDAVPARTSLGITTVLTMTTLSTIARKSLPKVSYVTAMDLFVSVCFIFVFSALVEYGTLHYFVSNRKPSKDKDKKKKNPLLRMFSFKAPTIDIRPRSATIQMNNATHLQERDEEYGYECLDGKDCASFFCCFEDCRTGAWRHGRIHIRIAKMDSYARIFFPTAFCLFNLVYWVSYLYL

Turning to `CC(=O)N1CCc2cc(OCc3c(-c4ccc(C)nc4)noc3C)ncc2C1` [Example 1, 1-[6-{[5-methyl-3-(6-methylpyridin-3-yl)-1,2-oxazol-4-yl]methoxy}-3,4-dihydro-2,7-naphthyridin-2(1H)-yl]ethanone], the Ki worked out at 1.7 nM.

Consider `Cc1ccc(-c2noc(C)c2COc2cc3c(cn2)CN(C(=O)OC(C)(C)C)CC3)cn1` [Example 2, tert-butyl 6-{[5-methyl-3-(6-methylpyridin-3-yl)-1,2-oxazol-4-yl]methoxyl}-1,2,3,4-tetrahydro-2,7-naphthyridine-2-carboxylate], for which the Ki was 38 nM.

In the case of `CC(=O)N1CCc2cc(OCc3c(-c4ccc(C(F)(F)F)nc4)noc3C)ncc2C1` [Example 4, 1-[6-({5-methyl-3-[6-(trifluoromethyl)pyridin-3-yl]-1,2-oxazol-4-yl}methoxy)-3,4-dihydro-2,7-naphthyridin-2(1H)-yl]ethanone], the Ki is 9.7 nM.

Consider `Cc1ccc(-c2noc(C)c2COc2cc3c(cn2)CN(C(=O)CS(C)(=O)=O)CC3)cn1` [Example 5, 2-methanesulfonyl-1-(6-{[5-methyl-3-(6-methylpyridin-3-yl)-1,2-oxazol-4-yl]methoxy}-1,2,3,4-tetrahydro-2,7-naphthyridin-2-yl)ethan-1-one], for which the Ki stood at 3.5 nM.

`Cc1ccc(-c2noc(C)c2COc2cc3c(cn2)CN(C(=O)c2cccnc2)CC3)cn1` [Example 7, 6-{[5-methyl-3-(6-methylpyridin-3-yl)-1,2-oxazol-4-yl]methoxy}-2-(pyridine-3-carbonyl)-1,2,3,4-tetrahydro-2,7-naphthyridine]: the Ki is 6 nM.

Consider `Cc1ccc(-c2noc(C)c2COc2cc3c(cn2)CN(C(=O)C2CCS(=O)(=O)CC2)CC3)cn1` [Example 8, 4-(6-{[5-methyl-3-(6-methylpyridin-3-yl)-1,2-oxazol-4-yl]methoxy}-1,2,3,4-tetrahydro-2,7-naphthyridine-2-carbonyl)-1lambda6-thiane-1,1-dione], for which the Ki worked out at 16 nM.

In the case of `Cc1ccc(-c2noc(C)c2COc2cc3c(cn2)CN(C(=O)c2ccncc2)CC3)cn1` [Example 9, 6-{[5-methyl-3-(6-methylpyridin-3-yl)-1,2-oxazol-4-yl]methoxy}-2-(pyridine-4-carbonyl)-1,2,3,4-tetrahydro-2,7-naphthyridine], the Ki was 10 nM.

`Cc1ccc(-c2noc(C)c2COc2cc3c(cn2)CN(C(=O)C2CCOCC2)CC3)cn1` [Example 10, 6-{[5-methyl-3-(6-methylpyridin-3-yl)-1,2-oxazol-4-yl]methoxy}-2-(oxane-4-carbonyl)-1,2,3,4-tetrahydro-2,7-naphthyridine]: the Ki turned out to be 17 nM.

Regarding `Cc1ccc(-c2noc(C)c2COc2cc3c(cn2)CN(C(=O)C2CCOC2)CC3)cn1` (stereo not drawn) [Example 12, 6-{[5-methyl-3-(6-methylpyridin-3-yl)-1,2-oxazol-4-yl]methoxy}-2-(oxolane-3-carbonyl)-1,2,3,4-tetrahydro-2,7-naphthyridine], the Ki is 7.2 nM.

Take `Cc1ccc(-c2noc(C)c2COc2cc3c(cn2)CN(C(=O)C2CC(=O)N(C)C2)CC3)cn1` (stereo not drawn) [Example 15, 1-methyl-4-(6-{[5-methyl-3-(6-methylpyridin-3-yl)-1,2-oxazol-4-yl]methoxy}-1,2,3,4-tetrahydro-2,7-naphthyridine-2-carbonyl)pyrrolidin-2-one]: the Ki came out at 8.3 nM.

Take `Cc1ccc(-c2noc(C)c2COc2cc3c(cn2)CN(C(=O)C2CC(=O)N(C(C)C)C2)CC3)cn1` (stereo not drawn) [Example 16, 4-(6-{[5-methyl-3-(6-methylpyridin-3-yl)-1,2-oxazol-4-yl]methoxy}-1,2,3,4-tetrahydro-2,7-naphthyridine-2-carbonyl)-1-(propan-2-yl)pyrrolidin-2-one]: the Ki amounted to 11 nM.

Take `Cc1ccc(-c2noc(C)c2COc2cc3c(cn2)CN(C(=O)C2CCC(=O)N(C)C2)CC3)cn1` (stereo not drawn) [Example 20, 1-methyl-5-(6-{[5-methyl-3-(6-methylpyridin-3-yl)-1,2-oxazol-4-yl]methoxy}-1,2,3,4-tetrahydro-2,7-naphthyridine-2-carbonyl)piperidin-2-one]: the Ki came out at 9 nM.
